Experiment [1] is described as follows: Luminescence Cell-Based Dose Response HTS to Identify Activators of Luciferase Translation or Activity in H4 […] Cells. [Related pubchem assays: 1829 (Project Summary), 1814 (Primary HTS)]. The experiment is classed as functional.
In another experiment the test system is H4. In words: Luminescence Cell-Based Dose Response HTS to Identify Activators of 5'UTR Stem-Loop Driven Prion Protein mRNA Translation in H4 Neuroglioblastoma Cells. [Related pubchem assays: 1829 (Project Summary), 1814 (Primary HTS)]. The experiment is classed as functional. Particulars: Homo sapiens.
A further experiment has as its target T1, Caspase-3 (Homo sapiens, UniProt P42574).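 Further: Dose-response selectivity test against caspase-3 for candidate inhibitors of sentrin-specific proteases (SENPs).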
T1 sequence (P42574 whole entry): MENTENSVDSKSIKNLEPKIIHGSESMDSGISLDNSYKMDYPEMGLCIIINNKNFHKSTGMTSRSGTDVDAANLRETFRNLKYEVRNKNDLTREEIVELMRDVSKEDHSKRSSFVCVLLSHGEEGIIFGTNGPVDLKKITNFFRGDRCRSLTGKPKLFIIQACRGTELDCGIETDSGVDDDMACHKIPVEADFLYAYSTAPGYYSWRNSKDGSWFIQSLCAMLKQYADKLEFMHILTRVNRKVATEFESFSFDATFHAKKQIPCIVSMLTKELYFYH
In kind it is functional.

The target in experiment [2] is T2, Sentrin-specific protease 7 (Homo sapiens, UniProt Q9BQF6).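 Further: Luminescence-based dose-response confirmation of ultra-high-throughput screening hits, measuring inhibition of SENP7.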
T2 sequence (Q9BQF6 whole entry): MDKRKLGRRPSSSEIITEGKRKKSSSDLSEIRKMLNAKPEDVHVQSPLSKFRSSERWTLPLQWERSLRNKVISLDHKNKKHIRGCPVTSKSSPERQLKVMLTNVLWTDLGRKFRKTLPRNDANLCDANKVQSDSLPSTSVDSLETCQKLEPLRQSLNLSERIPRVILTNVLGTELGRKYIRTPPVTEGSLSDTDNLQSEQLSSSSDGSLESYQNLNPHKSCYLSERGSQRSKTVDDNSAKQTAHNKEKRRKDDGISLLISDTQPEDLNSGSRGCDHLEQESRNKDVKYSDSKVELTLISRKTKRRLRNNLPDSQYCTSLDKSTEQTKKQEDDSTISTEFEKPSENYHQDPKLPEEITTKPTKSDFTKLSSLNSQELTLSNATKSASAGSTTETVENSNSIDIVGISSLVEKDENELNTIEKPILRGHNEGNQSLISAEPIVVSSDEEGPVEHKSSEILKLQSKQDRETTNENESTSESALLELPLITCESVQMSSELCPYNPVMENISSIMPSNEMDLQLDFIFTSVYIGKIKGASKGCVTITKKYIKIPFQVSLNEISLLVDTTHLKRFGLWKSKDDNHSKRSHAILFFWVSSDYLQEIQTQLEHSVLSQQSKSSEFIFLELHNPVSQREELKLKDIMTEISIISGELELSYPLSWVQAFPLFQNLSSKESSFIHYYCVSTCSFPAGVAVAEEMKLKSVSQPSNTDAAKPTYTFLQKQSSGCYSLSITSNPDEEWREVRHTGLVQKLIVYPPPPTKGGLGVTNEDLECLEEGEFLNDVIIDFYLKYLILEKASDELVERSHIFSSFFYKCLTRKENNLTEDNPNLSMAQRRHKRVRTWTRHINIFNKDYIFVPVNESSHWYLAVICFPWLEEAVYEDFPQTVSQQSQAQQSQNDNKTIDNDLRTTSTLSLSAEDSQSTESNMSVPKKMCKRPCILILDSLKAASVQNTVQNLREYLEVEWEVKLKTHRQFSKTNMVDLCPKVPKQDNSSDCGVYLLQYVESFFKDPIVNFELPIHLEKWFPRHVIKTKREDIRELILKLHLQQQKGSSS
The experiment is classed as functional.

Experiment [3] deals with T3, Sentrin-specific protease 6 (Homo sapiens, UniProt Q9GZR1).
T3 sequence (Q9GZR1 whole entry): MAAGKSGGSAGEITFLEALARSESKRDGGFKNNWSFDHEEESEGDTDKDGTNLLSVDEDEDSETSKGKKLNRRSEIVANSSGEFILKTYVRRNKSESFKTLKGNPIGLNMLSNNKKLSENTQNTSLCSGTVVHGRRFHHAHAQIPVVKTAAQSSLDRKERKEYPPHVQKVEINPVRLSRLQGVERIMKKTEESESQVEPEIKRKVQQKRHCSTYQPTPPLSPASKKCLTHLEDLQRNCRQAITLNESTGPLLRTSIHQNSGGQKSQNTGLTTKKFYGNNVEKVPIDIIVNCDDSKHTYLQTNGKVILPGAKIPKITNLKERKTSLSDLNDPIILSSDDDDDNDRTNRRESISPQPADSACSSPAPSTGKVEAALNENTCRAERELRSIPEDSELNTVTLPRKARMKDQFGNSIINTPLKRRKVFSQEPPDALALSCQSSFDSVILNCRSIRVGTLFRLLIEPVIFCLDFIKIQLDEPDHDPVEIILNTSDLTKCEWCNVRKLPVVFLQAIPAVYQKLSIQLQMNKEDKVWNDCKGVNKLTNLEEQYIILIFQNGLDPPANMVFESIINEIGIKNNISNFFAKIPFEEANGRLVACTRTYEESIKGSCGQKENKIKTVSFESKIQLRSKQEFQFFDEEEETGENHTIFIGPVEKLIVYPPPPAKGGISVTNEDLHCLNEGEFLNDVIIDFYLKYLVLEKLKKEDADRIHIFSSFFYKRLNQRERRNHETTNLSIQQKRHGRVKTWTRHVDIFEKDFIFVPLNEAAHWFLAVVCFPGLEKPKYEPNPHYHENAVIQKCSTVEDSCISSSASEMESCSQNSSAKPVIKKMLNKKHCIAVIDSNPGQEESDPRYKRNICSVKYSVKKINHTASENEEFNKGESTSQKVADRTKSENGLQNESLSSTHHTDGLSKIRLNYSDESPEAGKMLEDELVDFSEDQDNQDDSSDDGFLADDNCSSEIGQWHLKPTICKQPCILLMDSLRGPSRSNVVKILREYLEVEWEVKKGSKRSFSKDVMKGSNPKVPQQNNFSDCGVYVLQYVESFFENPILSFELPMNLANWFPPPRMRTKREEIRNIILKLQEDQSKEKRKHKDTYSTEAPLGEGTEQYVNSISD
In kind it is functional.

Experiment [4] addresses T4, Sentrin-specific protease 8 (Homo sapiens, UniProt Q96LD8).
T4 sequence (Q96LD8 whole entry): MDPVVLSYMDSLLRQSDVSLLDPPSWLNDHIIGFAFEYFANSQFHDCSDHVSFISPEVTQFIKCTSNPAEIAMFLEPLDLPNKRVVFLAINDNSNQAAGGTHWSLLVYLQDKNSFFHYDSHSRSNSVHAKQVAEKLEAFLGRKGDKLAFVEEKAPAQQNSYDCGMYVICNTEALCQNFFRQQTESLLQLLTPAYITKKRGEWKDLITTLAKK
In kind it is functional.

Experiment [5] addresses T5, Methionyl-tRNA synthetase, putative (Trypanosoma brucei brucei, UniProt Q38C91).
T5 sequence (Q38C91 whole entry): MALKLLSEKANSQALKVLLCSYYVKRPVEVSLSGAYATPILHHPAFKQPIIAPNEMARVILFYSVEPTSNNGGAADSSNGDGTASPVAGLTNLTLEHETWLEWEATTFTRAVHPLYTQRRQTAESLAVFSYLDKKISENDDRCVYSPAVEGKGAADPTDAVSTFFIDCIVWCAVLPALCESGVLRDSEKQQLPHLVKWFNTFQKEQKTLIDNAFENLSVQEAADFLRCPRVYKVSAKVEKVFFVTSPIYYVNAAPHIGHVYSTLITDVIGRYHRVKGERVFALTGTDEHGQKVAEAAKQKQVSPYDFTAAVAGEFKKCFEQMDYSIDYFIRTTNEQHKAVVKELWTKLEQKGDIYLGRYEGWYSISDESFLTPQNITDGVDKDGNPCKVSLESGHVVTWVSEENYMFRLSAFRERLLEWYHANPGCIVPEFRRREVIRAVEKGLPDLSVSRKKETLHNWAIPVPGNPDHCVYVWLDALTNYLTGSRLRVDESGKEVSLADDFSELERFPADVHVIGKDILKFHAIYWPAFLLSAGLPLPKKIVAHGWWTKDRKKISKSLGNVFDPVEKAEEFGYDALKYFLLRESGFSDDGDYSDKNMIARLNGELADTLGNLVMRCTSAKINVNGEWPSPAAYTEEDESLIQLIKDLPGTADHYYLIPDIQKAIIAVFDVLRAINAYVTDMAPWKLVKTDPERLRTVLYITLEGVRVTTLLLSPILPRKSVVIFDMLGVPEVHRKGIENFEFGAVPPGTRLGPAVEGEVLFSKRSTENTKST
The experiment is classed as functional, Trypanosoma brucei brucei strain 927/4 GUTat10.1.

Experiment [6] addresses T5, Methionyl-tRNA synthetase, putative. The experiment is classed as functional, Trypanosoma brucei brucei strain 927/4 GUTat10.1. This is another data set of the same source.
A short description of experiment [7]: Counterscreen for inhibitors of Trypanosoma brucei methionyl tRNA synthetase (MetRS): Luminescence-based cell-based high throughput dose response assay to identify compounds that are cytotoxic to Jurkat human T lymphocyte cells. In kind it is functional. On the technique in general: Counterscreens check selectivity or assay interference.
Experiment [8] has as its target T6, Ubiquitin-conjugating enzyme E2 N (Homo sapiens, UniProt P61088).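 Further: Dose-response confirmation in a TR-FRET assay detecting UBC13-driven polyubiquitin chain formation, inhibition measured.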
T6 sequence (P61088 whole entry): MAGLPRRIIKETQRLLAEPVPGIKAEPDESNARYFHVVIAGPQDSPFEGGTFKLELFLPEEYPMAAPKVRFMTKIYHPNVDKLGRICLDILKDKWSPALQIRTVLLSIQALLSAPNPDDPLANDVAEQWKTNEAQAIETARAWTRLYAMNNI
The experiment is classed as functional.

For experiment [9], the target named is T7, DNA repair protein RAD52 homolog (Homo sapiens, UniProt P43351).
T7 sequence (P43351 whole entry): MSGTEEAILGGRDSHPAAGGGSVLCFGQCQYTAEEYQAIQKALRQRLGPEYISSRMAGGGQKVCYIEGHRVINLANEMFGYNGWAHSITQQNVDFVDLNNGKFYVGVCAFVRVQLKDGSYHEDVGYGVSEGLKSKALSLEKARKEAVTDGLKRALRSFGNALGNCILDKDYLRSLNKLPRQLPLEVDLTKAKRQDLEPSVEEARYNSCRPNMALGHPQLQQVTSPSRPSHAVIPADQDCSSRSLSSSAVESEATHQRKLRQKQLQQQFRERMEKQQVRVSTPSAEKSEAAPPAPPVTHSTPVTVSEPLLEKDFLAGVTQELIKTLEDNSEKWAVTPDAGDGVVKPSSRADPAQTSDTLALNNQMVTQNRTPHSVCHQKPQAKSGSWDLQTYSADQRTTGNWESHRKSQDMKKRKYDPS
The experiment is classed as functional, biochemical.

The target in experiment [10] is Luciferin 4-monooxygenase (Photinus pyralis, UniProt P08659). In words: inhibition of purified Photinus pyralis luciferase – biochemical, luminescence, dose response (AID 1891).
Chain of Luciferin 4-monooxygenase (P08659 whole entry): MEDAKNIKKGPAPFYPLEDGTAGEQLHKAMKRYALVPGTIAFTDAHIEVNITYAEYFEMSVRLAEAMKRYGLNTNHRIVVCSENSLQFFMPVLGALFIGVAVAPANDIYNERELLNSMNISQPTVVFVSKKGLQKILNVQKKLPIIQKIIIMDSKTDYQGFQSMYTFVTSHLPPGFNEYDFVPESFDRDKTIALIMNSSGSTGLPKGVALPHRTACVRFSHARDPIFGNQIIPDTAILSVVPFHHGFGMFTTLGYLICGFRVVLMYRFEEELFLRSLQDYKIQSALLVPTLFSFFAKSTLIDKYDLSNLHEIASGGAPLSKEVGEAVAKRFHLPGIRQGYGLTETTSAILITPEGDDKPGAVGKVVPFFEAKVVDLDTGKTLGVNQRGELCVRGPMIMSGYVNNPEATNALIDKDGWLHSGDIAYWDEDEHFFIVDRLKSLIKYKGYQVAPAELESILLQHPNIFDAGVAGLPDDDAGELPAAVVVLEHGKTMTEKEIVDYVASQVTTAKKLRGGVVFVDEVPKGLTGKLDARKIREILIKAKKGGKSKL
Experiment [11] can be described thus: Luminescence Cell-Based Dose Confirmation HTS to Identify Inhibitors of Platelet Dense Granule Release. [Related pubchem assays: 1663 (Primary HTS), 1678 (Summary of Project)]. The experiment is classed as functional.
Experiment [12] addresses FAD-linked sulfhydryl oxidase ALR (Homo sapiens, UniProt P55789). In words: ALR-catalysed DTT oxidation blockers – biochemical, H2O2 detection, luminescence, cherry-pick, dose response (AID 493248).
The target in another experiment is Paired box protein Pax-8 (Homo sapiens, UniProt Q06710). Briefly: PAX8 transcriptional activity inhibition in RMG-I – RMG-I cells, luciferase, cherry-pick, dose response (AID 687027).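 Further: luciferase reporter driven by Pax8 target thyroperoxidase promoter measured by SteadyGlo luminescence.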 In kind it is functional, cell-based.
Chain of Paired box protein Pax-8 (Q06710 whole entry): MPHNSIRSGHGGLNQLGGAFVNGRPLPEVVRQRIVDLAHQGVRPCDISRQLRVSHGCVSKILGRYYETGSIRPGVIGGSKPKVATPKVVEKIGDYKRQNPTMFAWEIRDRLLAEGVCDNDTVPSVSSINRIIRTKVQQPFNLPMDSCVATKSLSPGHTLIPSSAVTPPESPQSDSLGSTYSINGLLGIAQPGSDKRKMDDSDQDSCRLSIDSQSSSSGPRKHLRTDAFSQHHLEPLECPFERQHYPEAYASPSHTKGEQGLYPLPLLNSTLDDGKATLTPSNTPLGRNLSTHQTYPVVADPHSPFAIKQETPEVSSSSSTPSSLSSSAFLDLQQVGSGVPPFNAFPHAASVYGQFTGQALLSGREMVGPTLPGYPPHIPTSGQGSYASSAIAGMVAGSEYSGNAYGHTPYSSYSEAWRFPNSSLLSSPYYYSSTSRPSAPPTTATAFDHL
Experiment [13] can be described thus: OVCAR8 cell viability loss – plate reader, dry powder samples, PAX8 project, dose response (AID 743197). In kind it is functional, cell-based. Particulars: OVCAR-8.

Structures are written as SMILES. Activity calls are given as the source filed them.

Chain of FAD-linked sulfhydryl oxidase ALR (P55789 whole entry): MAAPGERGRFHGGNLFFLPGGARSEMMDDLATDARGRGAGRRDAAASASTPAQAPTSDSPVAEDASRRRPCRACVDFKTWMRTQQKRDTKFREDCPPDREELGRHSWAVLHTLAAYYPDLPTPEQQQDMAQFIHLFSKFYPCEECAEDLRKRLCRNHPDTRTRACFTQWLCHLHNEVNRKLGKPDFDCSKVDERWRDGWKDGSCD

As to `CCOC(=O)c1sc(Nc2ccccc2Cl)nc1C`, the values for the EC50 (in experiment [1]; with H4) were 1.18 µM (active) and 43.9 µM (active), respectively. Also, the IC50 on Caspase-3 was 26.6 µM (active); in experiment [2] it was 8.78 µM (active); in [3], 19.8 µM (active); in [4], 20.3 µM (active).

As for `CC(C)(Oc1ccc(Cl)cc1)C(=O)OCc1nc2ccsc2c(=O)[nH]1`, the results for the IC50 in experiment [5] and in [6] were 21.6 µM (inactive) and 9.89 µM (active), respectively.

Turning to `CC(C)(Oc1ccc(Cl)cc1)C(=O)OCc1nc(O)c2sccc2n1`, the IC50 in experiment [7] was 83.3 µM (inactive).

With `O=C(NCc1cc(Cl)cc(Cl)c1)c1ccc2[nH]c([C@H]3C[C@H](O)[C@@H](CO)O3)nc2c1`, the IC50 in [5] was 23.8 µM (inactive); in [7] it was 83.3 µM (inactive); in [6], 13.5 µM (inactive).

In the case of `Cc1ccc(NC(=O)c2ccc3c(c2)OCO3)cc1Cl`, the IC50 on Caspase-3 was 14 µM (active); in [2], 4.44 µM (active); in experiment [3] it was 5.35 µM (active); in [4], > 100 µM (inactive).

Take `Cc1ccccc1C(=O)Oc1ccc2ccc(O)cc2c1`: the IC50 at Caspase-3 is 35.4 µM (active); in [2], 4.59 µM (active); in experiment [3], 10.4 µM (active); in experiment [4] it was 12.1 µM (active).

Consider `OCCN1CCN(CC/C=C2/c3ccccc3Sc3ccc(C(F)(F)F)cc32)CC1`, for which the IC50 in experiment [8] is > 20 µM (inactive). Moreover, in experiment [9], the half-maximal activity concentration (AC50) is 21.2 µM (active).

As for `C/C(=C1/SC(=S)N(CCC(=O)O)C1=O)c1ccc(O)cc1`, the EC50 in [10] and in [11] was > 112 µM (not active) throughout. The AC50 in [12] is 4.14 µM (active). For the same compound, the IC50 in experiment [5] was 16.6 µM (inactive); in [7], 83.3 µM (inactive); in experiment [6], 9.47 µM (active).

As to `CC(C)C[C@@H]1CN=C(N)N1C[C@@H]1CCCN1C[C@@H](C(C)C)N1C[C@@H](Cc2ccccc2)N(CCc2ccc(Cl)c(Cl)c2)C1=N`, the concentration at half-maximal activity (AC50) in experiment [9] was 16.7 µM (active).

As for `COc1ccc(NC(=O)Nc2ccc3c(c2)C(=O)N([C@@H](C)CO)C[C@@H](C)[C@@H](CN(C)Cc2ccc(Cl)c(Cl)c2)OCCCC[C@@H](C)O3)cc1`, the AC50 on Paired box protein Pax-8 is 14.1 µM (active); in experiment [13], 65.4 µM (active).

On to `Oc1ccccc1-c1csc(-c2ccccc2)n1`, for which the half-maximal inhibitory concentration (IC50) is 16.2 µM (active) at Caspase-3, 3.44 µM (active) in experiment [2], 7.62 µM (active) in experiment [3] and 10.7 µM (active) in [4].

In general, EC50 refers to the concentration at which the effect is half-maximal. By IC50 is commonly meant the concentration at which inhibition is half-maximal. The AC50 is the midpoint of the concentration-response curve, whichever way the signal moves.

(Values after ChEMBL document CHEMBL1201862, “PubChem BioAssay data set” (2004).)
